Legend:
[1] = system: U937 human histiocytic leukemia cell line; assay: Assay 1: inhibition of TSQ induced necroptosis, 96 well plate format; assay type: cell-based
Description: For in vitro analysis, the necroptosis inhibition may be determined by assays used to measure TSQ-induced necroptosis, as described in the biological tests defined herein.
(§1) Assay 1: Screening Compounds for Inhibition of TSQ Induced Necroptosis, 96 Well Plate Format.
(§2) Cell Line ID: […] human histiocytic leukemia cell line.
(§3) Cell Concentration (cells/well): 35,000 per well in 120 μL of media, counted and plated immediately prior to addition of inhibitor and death stimuli. Final well volume of 150 μL after addition of compounds and death stimuli
(§4) Cell growth medium: HTRPMI (WEHI Media kitchen, contains L-Glutamine and penicillin, streptomycin)—supplemented with 7.4% v/v FCS (Gibco, Precision Plus. Lot #1221437)
(§5) Incubation time (hours): 48 hours following addition of compounds and death stimuli
(§6) Compound Concentrations—Log Titrations:
(§7) DMSO final concentration (% v/v): 1.2% in 10 μM well to 0.2% in the control well.
Compounds that are in the Death Stimulation Cocktail and Their Final Concentrations:
hTNF-Fc (100 ng/ml)—produced by standard procedures as shown in Bossen et al., J Biol Chem, 2006, 281(20), 13964-13971.
Compound A (500 nM)—Smac mimetic, Tetralogic
Q-VD-OPh (10 μM)—MP Biomedicals
(§8) Cells treated with PI staining (1 μg/ml) and analysed by flow cytometry

[2] = system: U937 human histiocytic leukemia cell line; assay: Off-target effect (cell based assay), reported with assay 1
Description: as §1, §2, §3, §4, §5, §6, §7, §8

[3] = U-937, comparison tables of the description, values as in Table 1 (assay 1), read-out: IC50 (nM) Necroptosis inhibition
[4] = U-937, comparison tables of the description, values as in Table 1 (assay 1), read-out: IC50 (nM) Off-Target Effect
[5] = U-937, Table 1, assay 1, hTNF-Fc 100 ng/ml, Compound A 500 nM, Q-VD-OPh 10 μM, 48 hours, PI staining, flow cytometry, read-out: Inhibition of TSQ-induced necroptosis (cell based assay) IC50
[6] = U-937, Table 1, assay 1, read-out: Off-target effect (cell based assay) IC50

IC50 [2, 4] | IC50 [2, 6] | Structure (SMILES) | IC50 [1, 3] | IC50 [1, 5]
– | 4680 nM | Cc1ccc(Nc2nccc(N(C)c3ccc(NC(=O)Nc4ccc(OC(F)(F)F)cc4)cc3)n2)cc1CN(C)C [Compound 1, 1-(4-((2-((3-((dimethylamino)methyl)-4-methylphenyl)amino)pyrimidin-4-yl)(methyl)amino)phenyl)-3-(4-(trifluoromethoxy)phenyl)urea] | – | 53 nM
2110 nM | 2110 nM | CN(c1ccc(NC(=O)Nc2ccc(OC(F)(F)F)cc2)cc1)c1nc(Nc2cccc(S(N)(=O)=O)c2)ncc1Cl [Compound 2, 3-((5-Chloro-4-(methyl(4-(3-(4-(trifluoromethoxy)phenyl)ureido)phenyl)amino)pyrimidin-2-yl)amino) benzenesulfonamide] | 29.5 nM | 29.5 nM
791 nM | – | CN(c1ccc(NC(=O)Nc2cc(C(F)(F)F)ccc2F)cc1)c1ccnc(Nc2cccc(S(N)(=O)=O)c2)n1 [Compound 3 from AU 2014903569, reference compound] | – | –
> 10000 nM | > 10000 nM | CNC(=O)c1cc(Nc2nccc(N(C)c3ccc(NC(=O)Nc4ccc(OC(F)(F)F)cc4)cc3)n2)ccc1C [Compound 3, N-2-Dimethyl-5-((4-(methyl(4-(3-(4-(trifluoromethoxy)phenyl)ureido)phenyl)amino)pyrimidin-2-yl)amino)benzamide] | 93.1 nM | 93.1 nM
– | 7410 nM | Cc1ccc(Nc2nccc(N(C)c3ccc(NC(=O)Nc4ccc(OC(F)(F)F)cc4)cc3)n2)cc1C(N)=O [Compound 4, 2-Methyl-5-((4-(methyl(4-(3-(4-(trifluoromethoxy)phenyl)ureido)phenyl)amino)pyrimidin-2-yl)amino) benzamide] | – | 154 nM
– | 3110 nM | CN(c1ccc(NC(=O)Nc2ccc(OC(F)(F)F)cc2)cc1)c1nc(Nc2cccc(S(N)(=O)=O)c2)ncc1F [Compound 5, 3-((5-Fluoro-4-(methyl(4-(3-(4-(trifluoromethoxy)phenyl)ureido)phenyl)amino)pyrimidin-2-yl)amino) benzenesulfonamide] | – | 30 nM
5070 nM | – | CN(c1ccc(NC(=O)Nc2ccc(OC(F)(F)F)cc2)cc1)c1nc(Nc2cccc(S(N)(=O)=O)c2)ncc1C(F)(F)F [Compound 6a, 3-((4-(Methyl(4-(3-(4-(trifluoromethoxy)phenyl)ureido)phenyl)amino)-5-(trifluoromethyl)pyrimidin-2-yl)amino)benzenesulfonamide] | > 10000 nM | –
– | > 10000 nM | Cc1ccc(Nc2nccc(N(C)c3ccc(NC(=O)Nc4ccc(OC(F)(F)F)cc4)cc3)n2)cc1N1CCCC1=O [Compound 7] | – | 51.8 nM
> 10000 nM | > 10000 nM | CN(c1ccc(NC(=O)Nc2ccc(OC(F)(F)F)cc2)cc1)c1ccnc(Nc2cccc(N3CCCC3=O)c2)n1 [Compound 8, 1-(4-(Methyl(2-((3-(2-oxopyrrolidin-1-yl)phenyl)amino)pyrimidin-4-yl)amino)phenyl)-3-(4-(trifluoromethoxy)phenyl)urea] | 75.4 nM | 75.4 nM
– | > 10000 nM | COCCNC(=O)c1cc(Nc2nccc(N(C)c3ccc(NC(=O)Nc4ccc(OC(F)(F)F)cc4)cc3)n2)ccc1C [Compound 9, N-(2-Methoxyethyl)-2-methyl-5-((4-(methyl(4-(3-(4-(trifluoromethoxy)phenyl)ureido)phenyl)amino)pyrimidin-2-yl)amino)benzamide] | – | 97.3 nM
506 nM | 506 nM | CN(c1ccc(NC(=O)Nc2cc(F)cc(C(F)(F)F)c2)cc1)c1ccnc(Nc2cccc(S(N)(=O)=O)c2)n1 [Compound 10, 3-((4-((4-(3-(3-fluoro-5-(trifluoromethyl)phenyl)ureido)phenyl)(methyl)amino)pyrimidin-2-yl)amino)benzenesulfonamide] | < 1 nM | < 1 nM
– | 1350 nM | CN(c1ccc(NC(=O)Nc2ccc(OC(F)(F)F)cc2)cc1)c1ccnc(Nc2cccc(-c3nnn(C)n3)c2)n1 [Compound 11, 1-(4-(Methyl(2-((3-(2-methyl-2H-tetrazol-5-yl)phenyl)amino)pyrimidin-4-yl)amino)phenyl)-3-(4-(trifluoromethoxy)phenyl)urea] | – | 7.5 nM
> 10000 nM | > 10000 nM | CNC(=O)c1cc(Nc2ncc(F)c(N(C)c3ccc(NC(=O)Nc4ccc(OC(F)(F)F)cc4)cc3)n2)ccc1C [Compound 12, 5-((5-Fluoro-4-(methyl(4-(3-(4-(trifluoromethoxy)phenyl)ureido)phenyl)amino)pyrimidin-2-yl)amino)-N,2-dimethylbenzamide] | 10.1 nM | 10.1 nM
– | 1630 nM | CNC(=O)c1cc(Nc2nccc(N(C)c3ccc(NC(=O)Nc4ccc(Cl)c(C(F)(F)F)c4)cc3)n2)ccc1C [Compound 14, 5-((4-((4-(3-(4-Chloro-3-(trifluoromethyl)phenyl)ureido)phenyl)(methyl)amino)pyrimidin-2-yl)amino)-N,2-dimethylbenzamide] | – | 8.9 nM
– | 103 nM | CNC(=O)c1cc(Nc2ncc(F)c(N(C)c3ccc(NC(=O)Nc4cc(C(F)(F)F)ccc4F)cc3)n2)ccc1C [Compound 15, 5-(5-fluoro-4-((4-(3-(2-fluoro-5-(trifluoromethyl)phenyl)ureido)phenyl)(methyl)amino)pyrimidin-2-ylamino)-N,2-dimethylbenzamide] | – | < 1 nM
– | 1230 nM | CNC(=O)c1cc(Nc2nccc(N(C)c3ccc(NC(=O)Nc4cc(F)cc(C(F)(F)F)c4)cc3)n2)ccc1C [Compound 16, 5-(4-((4-(3-(3-fluoro-5-(trifluoromethyl)phenyl)ureido)phenyl)(methyl)amino)-pyrimidin-2-ylamino)-N,2-dimethylbenzamide] | – | 10.8 nM
– | 5670 nM | CNC(=O)c1cc(Nc2nccc(N(C)c3ccc(NC(=O)Nc4ccc(OC(F)(F)F)cc4)cc3)n2)ccc1N1CCOCC1 [Compound 17, N-methyl-5-((4-(methyl(4-(3-(4-(trifluoromethoxy)phenyl)ureido)phenyl)amino)pyrimidin-2-yl)amino)-2-morpholinobenzamide] | – | 38.3 nM
– | > 10000 nM | Cc1ccc(Nc2nccc(N(C)c3ccc(NC(=O)Nc4ccc(OC(F)(F)F)cc4)cc3)n2)cc1CN1CCOCC1 [Compound 18, 1-(4-(methyl(2-((4-methyl-3-(morpholinomethyl)phenyl)amino)pyrimidin-4-yl)amino)phenyl)-3-(4-(trifluoromethoxy)phenyl)urea] | – | 514 nM
– | > 10000 nM | CN(c1ccc(NC(=O)Nc2ccc(OC(F)(F)F)cc2)cc1)c1ccnc(Nc2cccc(O)c2)n1 [Compound 19, 1-(4-((2-(3-hydroxyphenylamino)pyrimidin-4-yl)(methyl)amino)phenyl)-3-(4-(trifluoromethoxy)phenyl)urea] | – | 1160 nM
– | > 10000 nM | COc1cccc(Nc2nccc(N(C)c3ccc(NC(=O)Nc4ccc(OC(F)(F)F)cc4)cc3)n2)c1 [Compound 20, 1-(4-((2-(3-methoxyphenylamino)pyrimidin-4-yl)(methyl)amino)phenyl)-3-(4-(trifluoromethoxy)phenyl)urea] | – | 504 nM
3600 nM | – | Cc1ccc(Nc2nccc(N(C)c3ccc(NC(=O)Nc4ccc(OC(F)(F)F)cc4)cc3)n2)cc1S(N)(=O)=O [Compound 21 from AU 2014903569, reference compound] | 72.7 nM | –
– | > 10000 nM | CN(c1ccc(NC(=O)Nc2ccc(OC(F)(F)F)cc2)cc1)c1ccnc(Nc2cccc(C#N)c2)n1 [Compound 21, 1-(4-((2-(3-cyanophenylamino)pyrimidin-4-yl)(methyl)amino)phenyl)-3-(4-(trifluoromethoxy)phenyl)urea] | – | 476 nM
– | > 10000 nM | CN(c1ccc(NC(=O)Nc2ccc(OC(F)(F)F)cc2)cc1)c1ccnc(Nc2cccc(N)c2)n1 [Compound 22, 1-(4-((2-(3-aminophenylamino)pyrimidin-4-yl)(methyl)amino)phenyl)-3-(4-(trifluoromethoxy)phenyl)urea] | – | 427 nM
– | – | CNC(=O)c1cc(Nc2nccc(N(C)c3ccc(NC(=O)Nc4cc(F)cc(C(F)(F)F)c4)cc3)n2)ccc1N1CCN(C)CC1 [Compound 31] | – | 13 nM
– | – | CNC(=O)c1cc(Nc2nccc(N(C)c3ccc(NC(=O)Nc4cc(F)cc(C(F)(F)F)c4)cc3)n2)ccc1OCCN1CCCC1 [Compound 32, 5-((4-((4-(3-(3-fluoro-5-(trifluoromethyl)phenyl)ureido)phenyl)(methyl)amino)pyrimidin-2-yl)amino)-N-methyl-2-(2-(pyrrolidin-1-yl)ethoxy)benzamide] | – | 40 nM

Structure (SMILES) | IC50 [2, 4] | IC50 [2, 6] | IC50 [1, 3] | IC50 [1, 5]
CN(c1ccc(NC(=O)Nc2ccc(OC(F)(F)F)cc2)cc1)c1ccnc(Nc2cccc(S(N)(=O)=O)c2)n1 [Compound 1 from AU 2014903569, reference compound] | 3570 nM | – | 67.9 nM | –
